{"source": "patent US8906889B2", "about": "“C-3 cycloalkenyl triterpenoids with HIV maturation inhibitory activity” (priority 2012, dated 2014)", "tested_on": "recombinant NL4-3 virus (Renilla luciferase, Gag P373S)", "test": "HIV cell culture assay (luciferase reporter, MT-2 cells)", "assay_type": "cell-based", "conditions": "Renilla, NL43, MT-2 cells infected for 4-5 days with NLRluc recombinants; luciferase activity", "in_short": "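MT-2 cells were infected for 4–5 days with NL4-3 carrying Renilla luciferase in place of part of nef and the Gag P373S change, in the presence of serially diluted inhibitor. Antiviral activity was quantified as luciferase signal from Dual Luciferase reagent.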", "data": [{"smiles": "C=C(C)[C@@H]1CC[C@]2(NC(=O)OC(C)(C)C)CC[C@]3(C)[C@H](CC[C@@H]4[C@@]5(C)CC=C(C6=CC7(C6)CC(C(=O)O)(C(=O)O)C7)C(C)(C)[C@@H]5CC[C@]43C)[C@@H]12", "note": "[Example A1, 6-((1R,3aS,5aR,5bR,7aR,11aS,11bR,13aR,13bR)-3a-((tert-butoxycarbonyl)amino)-5a,5b,8,8,11a-pentamethyl-1-(prop-1-en-2-yl)-2,3,3a,4,5,5a,5b,6,7,7a,8,11,11a,11b,12,13,13a,13b-octadecahydro-1H-cyclopenta[a]chrysen-9-yl)spiro[3.3]hept-5-ene-2,2-dicarboxylic acid]", "values": [{"measurement": "EC50", "value": 570, "unit": "nM"}]}, {"smiles": "C=C(C)[C@@H]1CC[C@]2(NCCN(c3ccccc3)S(=O)(=O)C(F)(F)F)CC[C@]3(C)[C@H](CC[C@@H]4[C@@]5(C)CC=C(C6=CC7(C6)CC(C(=O)O)(C(=O)O)C7)C(C)(C)[C@@H]5CC[C@]43C)[C@@H]12", "note": "[Example A2, 6-((1R,3aS,5aR,5bR,7aR,11aS,11bR,13aR,13bR)-5a,5b,8,8,11a-pentamethyl-1-(prop-1-en-2-yl)-3a-((2-(1,1,1-trifluoro-N-phenylmethylsulfonamido)ethyl)amino)-2,3,3a,4,5,5a,5b,6,7,7a,8,11,11a,11b,12,13,13a,13b-octadecahydro-1H-cyclopenta[a]chrysen-9-yl)spiro[3.3]hept-5-ene-2,2-dicarboxylic acid]", "values": [{"measurement": "EC50", "value": 1070, "unit": "nM"}]}, {"smiles": "C=C(C)[C@@H]1CC[C@]2(NCCN(c3ccc(Cl)cn3)S(=O)(=O)C(F)(F)F)CC[C@]3(C)[C@H](CC[C@@H]4[C@@]5(C)CC=C(C6=CC7(C6)CC(C(=O)O)(C(=O)O)C7)C(C)(C)[C@@H]5CC[C@]43C)[C@@H]12", "note": "[Example A3, 6-((1R,3 aS,5aR,5bR,7aR,11aS,11bR,13 aR,13bR)-3a-((2-(N-(5-chloropyridin-2-yl)-1,1,1-trifluoromethylsulfonamido)ethyl)amino)-5a,5b,8,8,11a-pentamethyl-1-(prop-1-en-2-yl)-2,3,3a,4,5,5a,5b,6,7,7a,8,11,11a,11b,12,13,13a,13b-octadecahydro-1H-cyclopenta[a]chrysen-9-yl)spiro[3.3]hept-5-ene-2,2-dicarboxylic acid]", "values": [{"measurement": "EC50", "value": 1750, "unit": "nM"}]}, {"smiles": "C=C(C)[C@@H]1CC[C@]2(NCCN3CCOCC3)CC[C@]3(C)[C@H](CC[C@@H]4[C@@]5(C)CC=C(C6=CC7(C6)CC(C(=O)O)(C(=O)O)C7)C(C)(C)[C@@H]5CC[C@]43C)[C@@H]12", "note": "[Example A4, 6-((1R,3aS,5aR,5bR,7aR,11aS,11bR,13aR,13bR)-5a,5b,8,8,11a-pentamethyl-3a-((2-morpholinoethyl)amino)-1-(prop-1-en-2-yl)-2,3,3a,4,5,5a,5b,6,7,7a,8,11,11a,11b,12,13,13a,13b-octadecahydro-1H-cyclopenta[a]chrysen-9-yl)spiro[3.3]hept-5-ene-2,2-dicarboxylic acid]", "values": [{"measurement": "EC50", "value": 100, "unit": "nM"}]}, {"smiles": "C=C(C)[C@@H]1CC[C@]2(NCCN3CCS(=O)(=O)CC3)CC[C@]3(C)[C@H](CC[C@@H]4[C@@]5(C)CC=C(C6=CCC(C#N)(C(=O)O)CC6)C(C)(C)[C@@H]5CC[C@]43C)[C@@H]12", "note": "(stereo partly drawn) [Example A5, 1-cyano-4-((1R,3aS,5aR,5bR,7aR,11aS,11bR,13aR,13bR)-3a-((2-(1,1-dioxidothiomorpholino)ethyl)amino)-5a,5b,8,8,11a-pentamethyl-1-(prop-1-en-2-yl)-2,3,3a,4,5,5a,5b,6,7,7a,8,11,11a,11b,12,13,13a,13b-octadecahydro-1H-cyclopenta[a]chrysen-9-yl)cyclohex-3-enecarboxylic acid]", "values": [{"measurement": "EC50", "value": 4.26, "unit": "nM"}]}, {"smiles": "C=C(C)[C@@H]1CC[C@]2(NCCN3CCS(=O)(=O)CC3)CC[C@]3(C)[C@H](CC[C@@H]4[C@@]5(C)CC=C(C6=CCC(Cl)(C(=O)O)CC6)C(C)(C)[C@@H]5CC[C@]43C)[C@@H]12", "note": "(stereo partly drawn) [Example A7, 1-chloro-4-((1R,3aS,5aR,5bR,7aR,11aS,11bR,13aR,13bR)-3a-((2-(1,1-dioxidothiomorpholino)ethyl)amino)-5a,5b,8,8,11a-pentamethyl-1-(prop-1-en-2-yl)-2,3,3a,4,5,5a,5b,6,7,7a,8,11,11a,11b,12,13,13a,13b-octadecahydro-1H-cyclopenta[a]chrysen-9-yl)cyclohex-3-enecarboxylic acid]", "values": [{"measurement": "EC50", "value": 2.91, "unit": "nM"}]}, {"smiles": "C=C(C)[C@@H]1CC[C@]2(NCCN3CCC(S(C)(=O)=O)CC3)CC[C@]3(C)[C@H](CC[C@@H]4[C@@]5(C)CC=C(C6=CCC(F)(C(=O)O)CC6)C(C)(C)[C@@H]5CC[C@]43C)[C@@H]12", "note": "(stereo partly drawn) [Example A9, 1-fluoro-4-((1R,3aS,5aR,5bR,7aR,11aS,11bR,13aR,13bR)-5a,5b,8,8,11a-pentamethyl-3a-((2-(4-(methylsulfonyl)piperidin-1-yl)ethyl)amino)-1-(prop-1-en-2-yl)-2,3,3a,4,5,5a,5b,6,7,7a,8,11,11a,11b,12,13,13a,13b-octadecahydro-1H-cyclopenta[a]chrysen-9-yl)cyclohex-3-enecarboxylic acid]", "values": [{"measurement": "EC50", "value": 2.84, "unit": "nM"}]}, {"smiles": "C=C(C)[C@@H]1CC[C@]2(NCCN3CCS(=O)(=O)CC3)CC[C@]3(C)[C@H](CC[C@@H]4[C@@]5(C)CC=C(C6=CCC(CCO)(C(=O)O)CC6)C(C)(C)[C@@H]5CC[C@]43C)[C@@H]12", "note": "(stereo partly drawn) [Example A10, 4-((1R,3aS,5aR,5bR,7aR,11aS,11bR,13aR,13bR)-3a-((2-(1,1-dioxidothiomorpholino)ethyl)amino)-5a,5b,8,8,11a-pentamethyl-1-(prop-1-en-2-yl)-2,3,3a,4,5,5a,5b,6,7,7a,8,11,11a,11b,12,13,13a,13b-octadecahydro-1H-cyclopenta[a]chrysen-9-yl)-1-(2-hydroxyethyl)cyclohex-3-enecarboxylic acid]", "values": [{"measurement": "EC50", "value": 4.86, "unit": "nM"}]}, {"smiles": "C=C(C)[C@@H]1CC[C@]2(NCCN3CCS(=O)(=O)CC3)CC[C@]3(C)[C@H](CC[C@@H]4[C@@]5(C)CC=C(C6=CCC(CO)(C(=O)O)CC6)C(C)(C)[C@@H]5CC[C@]43C)[C@@H]12", "note": "(stereo partly drawn) [Example A12, 4-((1R,3aS,5aR,5bR,7aR,11aS,11bR,13aR,13bR)-3a-((2-(1,1-dioxidothiomorpholino)ethyl)amino)-5a,5b,8,8,11a-pentamethyl-1-(prop-1-en-2-yl)-2,3,3a,4,5,5a,5b,6,7,7a,8,11,11a,11b,12,13,13a,13b-octadecahydro-1H-cyclopenta[a]chrysen-9-yl)-1-(hydroxymethyl)cyclohex-3-enecarboxylic acid]", "values": [{"measurement": "EC50", "value": 2.46, "unit": "nM"}]}, {"smiles": "C=C(C)[C@@H]1CC[C@]2(CNCCCN3CCS(=O)(=O)CC3)CC[C@]3(C)[C@H](CC[C@@H]4[C@@]5(C)CC=C(C6=CC7(C6)CC(C(=O)O)(C(=O)O)C7)C(C)(C)[C@@H]5CC[C@]43C)[C@@H]12", "note": "[Example A14, 6-((1R,3aS,5aR,5bR,7aR,11aS,11bR,13aR,13bR)-3a-(((3-(1,1-dioxidothiomorpholino)propyl)amino)methyl)-5a,5b,8,8,11a-pentamethyl-1-(prop-1-en-2-yl)-2,3,3a,4,5,5a,5b,6,7,7a,8,11,11a,11b,12,13,13a,13b-octadecahydro-1H-cyclopenta[a]chrysen-9-yl)spiro[3.3]hept-5-ene-2,2-dicarboxylic acid]", "values": [{"measurement": "EC50", "value": 190, "unit": "nM"}]}, {"smiles": "C=C(C)[C@@H]1CC[C@]2(NCCN3CCS(=O)(=O)CC3)CC[C@]3(C)[C@H](CC[C@@H]4[C@@]5(C)CC=C(C6=CC(C)=C(C(=O)O)CC6)C(C)(C)[C@@H]5CC[C@]43C)[C@@H]12", "note": "[Example A16, 4-((1R,3aS,5aR,5bR,7aR,11aS,11bR,13aR,13bR)-3a-((2-(1,1-dioxidothiomorpholino)ethyl)amino)-5a,5b,8,8,11a-pentamethyl-1-(prop-1-en-2-yl)-2,3,3a,4,5,5a,5b,6,7,7a,8,11,11a,11b,12,13,13a,13b-octadecahydro-1H-cyclopenta[a]chrysen-9-yl)-2-methylcyclohexa-1,3-dienecarboxylic acid]", "values": [{"measurement": "EC50", "value": 2.23, "unit": "nM"}]}, {"smiles": "C=C(C)[C@@H]1CC[C@]2(NCCN3CCS(=O)(=O)CC3)CC[C@]3(C)[C@H](CC[C@@H]4[C@@]5(C)CC=C(C6=COC(C)(C(=O)O)OC6)C(C)(C)[C@@H]5CC[C@]43C)[C@@H]12", "note": "(stereo partly drawn) [Example A17, 5-((1R,3aS,5aR,5bR,7aR,11aS,11bR,13aR,13bR)-3a-((2-(1,1-dioxidothiomorpholino)ethyl)amino)-5a,5b,8,8,11a-pentamethyl-1-(prop-1-en-2-yl)-2,3,3a,4,5,5a,5b,6,7,7a,8,11,11a,11b,12,13,13a,13b-octadecahydro-1H-cyclopenta[a]chrysen-9-yl)-2-methyl-4H-1,3-dioxine-2-carboxylic acid]", "values": [{"measurement": "EC50", "value": 320, "unit": "nM"}]}, {"smiles": "C=C(C)[C@@H]1CC[C@]2(NCCN3CCS(=O)(=O)CC3)CC[C@]3(C)[C@H](CC[C@@H]4[C@@]5(C)CC=C(C6=CC(C(=O)O)CC6)C(C)(C)[C@@H]5CC[C@]43C)[C@@H]12", "note": "(stereo partly drawn) [Example A21, 3-((1R,3aS,5aR,5bR,7aR,11aS,11bR,13aR,13bR)-3a-((2-(1,1-dioxidothiomorpholino)ethyl)amino)-5a,5b,8,8,11a-pentamethyl-1-(prop-1-en-2-yl)-2,3,3a,4,5,5a,5b,6,7,7a,8,11,11a,11b,12,13,13a,13b-octadecahydro-1H-cyclopenta[a]chrysen-9-yl)cyclopent-2-enecarboxylic acid]", "values": [{"measurement": "EC50", "value": 2.76, "unit": "nM"}]}, {"smiles": "C=C(C)[C@@H]1CC[C@]2(NCCN3CCS(=O)(=O)CC3)CC[C@]3(C)[C@H](CC[C@@H]4[C@@]5(C)CC=C(C6=CCC(C(=O)O)C6)C(C)(C)[C@@H]5CC[C@]43C)[C@@H]12", "note": "(stereo partly drawn) [Example A22, 3-((1R,3aS,5aR,5bR,7aR,11aS,11bR,13aR,13bR)-3a-((2-(1,1-dioxidothiomorpholino)ethyl)amino)-5a,5b,8,8,11a-pentamethyl-1-(prop-1-en-2-yl)-2,3,3a,4,5,5a,5b,6,7,7a,8,11,11a,11b,12,13,13a,13b-octadecahydro-1H-cyclopenta[a]chrysen-9-yl)cyclopent-3-enecarboxylic acid]", "values": [{"measurement": "EC50", "value": 3.53, "unit": "nM"}]}]}
